Legend:
Assay type in all cases: cell-based
[1] = system: human PC-3 cells; assay: Sulforhodamine B (SRB) assay, cytotoxicity against PC-3 cells; conditions: SRB assay, PC-3 cells
Outline: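 PC-3 cells in 5% FBS were fixed with 10% TCA after 24 h as T0, then treated with compound for 48 h, fixed, stained with 0.4% SRB in 1% acetic acid and solubilized in 10 mmol/L Trizma base. Absorbance was read at 515 nm. GI% = 100−[(Tx−T0)/(C−T0)]×100, and IC50 is the concentration halving total protein.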

[2] = system: CCRF-CEM; assay: cells
[3] = system: HL-60 (TB); assay: cells
[4] = system: A549/ATCC; assay: cells
[5] = system: HOP-62; assay: cells
[6] = system: NCI-H226; assay: cells
[7] = system: HCC-2998; assay: cells
[8] = system: HCT-116; assay: cells
[9] = system: HCT-15; assay: cells
[10] = system: HT29; assay: cells
[11] = system: KM12; assay: cells
[12] = system: SF-268; assay: cells
[13] = system: SF-295; assay: cells
[14] = system: SF-539; assay: cells
[15] = system: U251; assay: cells; conditions: CNS Cancer U251
[16] = system: MALME-3M; assay: cells
[17] = system: MDA-MB-435; assay: cells
[18] = system: SK-MEL-28; assay: cells
[19] = system: UACC-257; assay: cells
[20] = system: UACC-62; assay: cells
[21] = system: IGROV1; assay: cells
[22] = system: NCI/ADR-RES; assay: cells
[23] = system: A498; assay: cells
[24] = system: CAKI-1; assay: cells
[25] = system: DU-145; assay: cells
[26] = system: MCF7; assay: cells
[27] = system: MDA-MB-231/ATCC; assay: cells
[28] = system: HS 578T; assay: cells
[29] = system: BT-549; assay: cells
[30] = Homo sapiens, Non-Small Cell Lung Cancer A549/ATCC
[31] = Homo sapiens, Non-Small Cell Lung Cancer HOP-62
[32] = Homo sapiens, Colon Cancer HCT-116
[33] = Homo sapiens, CNS Cancer SF-268
[34] = Homo sapiens, CNS Cancer SF-295
[35] = Homo sapiens, CNS Cancer SF-539
[36] = Homo sapiens, Melanoma MALME-3M
[37] = Homo sapiens, Breast Cancer MDA-MB-231/ATCC

`O=C1c2cc(Cl)ccc2-c2c(N3CCNCC3)nc3ccccc3c21` [SJ-10, 9-Chloro-6-(piperazin-1-yl)-11H-indeno[1,2-c]quinolin-11-one] was tested, and the “Toxicity (%)” value [1] was 47.2%, the “GI % (10 μM)” value ([1]; 10 μM) was 100% and the growth percentage ([2]; CCRF-CEM (Leukemia), 10 μM, 48 hours) was -35.45%. For the same molecule, the GI50 ([2]; Homo sapiens, Leukemia CCRF-CEM) was 6.32 µM, the CC50 ([2]; Homo sapiens, Leukemia CCRF-CEM, read-out: LC50 (the source's name)) was > 100 µM and the TGI ([2]; Leukemia CCRF-CEM) was >100 µM. The growth percentage ([3]; HL-60 (TB) (Leukemia), 10 μM, 48 hours) was -38.36%, the GI50 ([3]; Homo sapiens, Leukemia HL-60(TB)) was 36.9 µM and the CC50 ([3]; Homo sapiens, Leukemia HL-60(TB), read-out: LC50 (the source's name)) was > 100 µM. The TGI ([3]; Leukemia HL-60(TB)) was >100 µM, the growth percentage ([4]; A549/ATCC (Non-Small Cell Lung Cancer), 10 μM, 48 hours) was 18.70% and the GI50 [4, 30] was 4.87 µM. For the same molecule, the LC50 (50% lethal concentration) [4, 30] was > 100 µM, the TGI ([4]; Non-Small Cell Lung Cancer A549/ATCC) was >100 µM and the growth percentage ([5]; HOP-62 (Non-Small Cell Lung Cancer), 10 μM, 48 hours) was -61.80%. For the same molecule, the GI50 [5, 31] was 12.3 µM, the LC50 (50% lethal concentration) [5, 31] was > 100 µM and the TGI ([5]; Non-Small Cell Lung Cancer HOP-62) was >100 µM. The GI50 ([6]; Homo sapiens, Non-Small Cell Lung Cancer NCI-H226) was 7.77 µM, the CC50 ([6]; Homo sapiens, Non-Small Cell Lung Cancer NCI-H226, read-out: LC50 (the source's name)) was > 100 µM and the growth percentage ([6]; NCI-H226 (Non-Small Cell Lung Cancer), 10 μM, 48 hours) was 49.94%. For the same molecule, the TGI ([6]; Non-Small Cell Lung Cancer NCI-H226) was >100 µM, the TGI ([7]; Colon Cancer HCC-2998) was >100 µM and the growth percentage ([7]; HCC-2998 (Colon Cancer), 10 μM, 48 hours) was -55.83%. For the same molecule, the GI50 ([7]; Homo sapiens, Colon Cancer HCC-2998) was 30.9 µM, the CC50 ([7]; Homo sapiens, Colon Cancer HCC-2998, read-out: LC50 (the source's name)) was > 100 µM and the TGI ([8]; Colon Cancer HCT-116) was >100 µM. For the same molecule, the growth percentage ([8]; HCT-116 (Colon Cancer), 10 μM, 48 hours) was -83.19%, the GI50 [8, 32] was 5.42 µM and the LC50 (50% lethal concentration) [8, 32] was > 100 µM. The TGI ([9]; Colon Cancer HCT-15) was >100 µM, the growth percentage ([9]; HCT-15 (Colon Cancer), 10 μM, 48 hours) was -78.92% and the GI50 ([9]; Homo sapiens, Colon Cancer HCT-15) was 4.34 µM. The CC50 ([9]; Homo sapiens, Colon Cancer HCT-15, read-out: LC50 (the source's name)) was > 100 µM, the TGI ([10]; Colon Cancer HT29) was >100 µM and the growth percentage ([10]; HT29 (Colon Cancer), 10 μM, 48 hours) was -80.89%. The GI50 ([10]; Homo sapiens, HT-29, Colon Cancer HT29) was 7.84 µM, the CC50 ([10]; Homo sapiens, HT-29, Colon Cancer HT29, read-out: LC50 (the source's name)) was > 100 µM and the TGI ([11]; Colon Cancer KM12) was >100 µM. For the same molecule, the GI50 ([11]; Homo sapiens, Colon Cancer KM12) was 2.5 µM, the CC50 ([11]; Homo sapiens, Colon Cancer KM12, read-out: LC50 (the source's name)) was > 100 µM and the growth percentage ([11]; KM12 (Colon Cancer), 10 μM, 48 hours) was -47.09%. The TGI ([12]; CNS Cancer SF-268) was >100 µM, the GI50 [12, 33] was 8.71 µM and the LC50 [12, 33] was > 100 µM. The growth percentage ([12]; SF-268 (CNS Cancer), 10 μM, 48 hours) was 34.33%, the TGI ([13]; CNS Cancer SF-295) was >100 µM and the GI50 [13, 34] was 7.79 µM. For the same molecule, the LC50 (concentration killing 50% of cells) [13, 34] was > 100 µM, the growth percentage ([13]; SF-295 (CNS Cancer), 10 μM, 48 hours) was 23.75% and the TGI ([14]; CNS Cancer SF-539) was >100 µM. For the same molecule, the GI50 [14, 35] was 14.2 µM, the LC50 (concentration giving 50% net cell kill) [14, 35] was > 100 µM and the growth percentage ([14]; SF-539 (CNS Cancer), 10 μM, 48 hours) was 36.91%. The TGI [15] was >100 µM, the GI50 ([15]; Homo sapiens, U-251) was 4.82 µM and the LC50 (concentration killing 50% of cells) ([15]; Homo sapiens, U-251) was > 100 µM. The GI50 [16, 36] was 8.87 µM, the LC50 (concentration killing 50% of cells) [16, 36] was > 100 µM and the growth percentage ([16]; MALME-3M (Melanoma), 10 μM, 48 hours) was -32.28%. For the same molecule, the TGI ([16]; Melanoma MALME-3M) was >100 µM, the GI50 ([17]; Homo sapiens, Melanoma MDA-MB-435) was 7.01 µM and the CC50 ([17]; Homo sapiens, Melanoma MDA-MB-435, read-out: LC50 (the source's name)) was > 100 µM. For the same molecule, the growth percentage ([17]; MDA-MB-435 (Melanoma), 10 μM, 48 hours) was -6.57%, the TGI ([17]; Melanoma MDA-MB-435) was >100 µM and the GI50 ([18]; Homo sapiens, Melanoma SK-MEL-28) was > 100 µM. The CC50 ([18]; Homo sapiens, Melanoma SK-MEL-28, read-out: LC50 (the source's name)) was > 100 µM, the TGI ([18]; Melanoma SK-MEL-28) was >100 µM and the growth percentage ([18]; SK-MEL-28 (Melanoma), 10 μM, 48 hours) was -91.38%. The GI50 ([19]; Homo sapiens, Melanoma UACC-257) was 35.1 µM, the CC50 ([19]; Homo sapiens, Melanoma UACC-257, read-out: LC50 (the source's name)) was > 100 µM and the TGI ([19]; Melanoma UACC-257) was >100 µM. The growth percentage ([19]; UACC-257 (Melanoma), 10 μM, 48 hours) was -39.24%, the GI50 ([20]; Homo sapiens, Melanoma UACC-62) was 4.38 µM and the CC50 ([20]; Homo sapiens, Melanoma UACC-62, read-out: LC50 (the source's name)) was > 100 µM. For the same molecule, the TGI ([20]; Melanoma UACC-62) was >100 µM, the growth percentage ([20]; UACC-62 (Melanoma), 10 μM, 48 hours) was -81.71% and the GI50 ([21]; Homo sapiens, IGROV-1, Ovarian Cancer IGROV1) was 5.94 µM. The CC50 ([21]; Homo sapiens, IGROV-1, Ovarian Cancer IGROV1, read-out: LC50 (the source's name)) was > 100 µM, the growth percentage ([21]; IGROV1 (Ovarian Cancer), 10 μM, 48 hours) was 3.23% and the TGI ([21]; Ovarian Cancer IGROV1) was >100 µM. The GI50 ([22]; Homo sapiens, Ovarian Cancer NCI/ADR-RES) was 22.5 µM, the CC50 ([22]; Homo sapiens, Ovarian Cancer NCI/ADR-RES, read-out: LC50 (the source's name)) was > 100 µM and the growth percentage ([22]; NCI/ADR-RES (Ovarian Cancer), 10 μM, 48 hours) was -4.00%. The TGI ([22]; Ovarian Cancer NCI/ADR-RES) was >100 µM, the growth percentage ([23]; A498 (Renal Cancer), 10 μM, 48 hours) was 59.79% and the GI50 ([23]; Homo sapiens, Renal Cancer A498) was 2.63 µM. For the same molecule, the CC50 ([23]; Homo sapiens, Renal Cancer A498, read-out: LC50 (the source's name)) was > 100 µM, the TGI ([23]; Renal Cancer A498) was >100 µM and the growth percentage ([24]; CAKI-1 (Renal Cancer), 10 μM, 48 hours) was 17.84%. The GI50 ([24]; Homo sapiens, Renal Cancer CAKI-1) was 2.52 µM, the CC50 ([24]; Homo sapiens, Renal Cancer CAKI-1, read-out: LC50 (the source's name)) was > 100 µM and the TGI ([24]; Renal Cancer CAKI-1) was >100 µM. For the same molecule, the growth percentage ([25]; DU-145 (Prostate Cancer), 10 μM, 48 hours) was -41.83%, the GI50 ([25]; Homo sapiens, Prostate Cancer DU-145) was 4.79 µM and the CC50 ([25]; Homo sapiens, Prostate Cancer DU-145, read-out: LC50 (the source's name)) was > 100 µM. For the same molecule, the TGI ([25]; Prostate Cancer DU-145) was >100 µM, the TGI ([26]; Breast Cancer MCF7) was >100 µM and the GI50 ([26]; Homo sapiens, Breast Cancer MCF7) was 5.42 µM. For the same molecule, the CC50 ([26]; Homo sapiens, Breast Cancer MCF7, read-out: LC50 (the source's name)) was > 100 µM, the growth percentage ([26]; MCF7 (Breast Cancer), 10 μM, 48 hours) was -100.00% and the TGI ([27]; Breast Cancer MDA-MB-231/ATCC) was >100 µM. For the same molecule, the GI50 [27, 37] was 7.23 µM, the LC50 (concentration giving 50% net cell kill) [27, 37] was > 100 µM and the growth percentage ([27]; MDA-MB-231/ATCC (Breast Cancer), 10 μM, 48 hours) was -10.45%. For the same molecule, the TGI ([28]; Breast Cancer HS 578T) was >100 µM, the growth percentage ([28]; HS 578T (Breast Cancer), 10 μM, 48 hours) was 60.88% and the GI50 ([28]; Homo sapiens, Breast Cancer HS 578T) was 4.77 µM. For the same molecule, the CC50 ([28]; Homo sapiens, Breast Cancer HS 578T, read-out: LC50 (the source's name)) was > 100 µM, the growth percentage ([29]; BT-549 (Breast Cancer), 10 μM, 48 hours) was 58.35% and the TGI ([29]; Breast Cancer BT-549) was >100 µM. The GI50 ([29]; Homo sapiens, Breast Cancer BT-549) was 10.6 µM and the CC50 ([29]; Homo sapiens, Breast Cancer BT-549, read-out: LC50 (the source's name)) was > 100 µM.

From patent US20150197492A1, “NOVEL INDENO[1,2-c]QUINOLIN-11-ONE DERIVATIVES, PREPARATION METHOD AND APPLICATION THEREOF” (National Defense Medical Center, priority 2014, published 2015)
